Measurements taken from ChEMBL document CHEMBL1201861, “Genomics of Drug Sensitity in Cancer screening data, Wellcome Trust Sanger Institute”.

Experiments:
Assay in all cases: cells
Details in all cases: Homo sapiens
[1] = tested on: TGBC1TKB; assay type: functional, cell-based;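 note: growth inhibition of TGBC1TKB cells, read out by a cell viability assay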
Description: SANGER: Inhibition of human TGBC1TKB cell growth in a cell viability assay.

[2] = tested on: MV4-11; assay type: functional, cell-based, MV-4-11;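 note: cell viability readout measuring growth inhibition of human MV-4-11 cells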
Description: SANGER: Inhibition of human MV-4-11 cell growth in a cell viability assay.

[3] = tested on: TE-1; assay type: functional, cell-based;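 note: growth inhibition of the human TE-1 cell line, read out with a cell viability assay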
Description: SANGER: Inhibition of human TE-1 cell growth in a cell viability assay.

[4] = tested on: COLO-320-HSR; assay type: functional, cell-based;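 note: growth inhibition of COLO-320-HSR cells, determined with a cell viability assay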
Description: SANGER: Inhibition of human COLO-320-HSR cell growth in a cell viability assay.

[5] = tested on: KG-1; assay type: functional, cell-based;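 note: growth inhibition of KG-1 cells, read out by a cell viability assay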
Description: SANGER: Inhibition of human KG-1 cell growth in a cell viability assay.

[6] = tested on: P30-OHK; assay type: functional, cell-based;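 note: growth inhibition of the P30-OHK cell line, read out with a cell viability assay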
Description: SANGER: Inhibition of human P30-OHK cell growth in a cell viability assay.

[7] = tested on: NCI-H23; assay type: functional, cell-based;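 note: cell viability assay measuring growth inhibition of NCI-H23 cells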
Description: SANGER: Inhibition of human NCI-H23 cell growth in a cell viability assay.

[8] = tested on: OVCAR-4; assay type: functional, cell-based;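 note: growth inhibition of human OVCAR-4 cells, measured with a cell viability assay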
Description: SANGER: Inhibition of human OVCAR-4 cell growth in a cell viability assay.

[9] = tested on: LB2518-MEL; assay type: functional, cell-based;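 note: growth inhibition of human LB2518-MEL cells, measured with a cell viability assay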
Description: SANGER: Inhibition of human LB2518-MEL cell growth in a cell viability assay.

[10] = tested on: NCI-H1838; assay type: functional, cell-based;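 note: growth inhibition of NCI-H1838 cells, determined with a cell viability readout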
Description: SANGER: Inhibition of human NCI-H1838 cell growth in a cell viability assay.

[11] = tested on: VM-CUB-1; assay type: functional, cell-based;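 note: cell viability assay measuring growth inhibition of the human VM-CUB-1 cell line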
Description: SANGER: Inhibition of human VM-CUB-1 cell growth in a cell viability assay.

[12] = tested on: LAN-6; assay type: functional, cell-based;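 note: growth inhibition of LAN-6 cells, determined with a cell viability assay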
Description: SANGER: Inhibition of human LAN-6 cell growth in a cell viability assay.

[13] = tested on: Lu-65; assay type: functional, cell-based;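 note: growth inhibition of Lu-65 cancer cells, read out by a cell viability assay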
Description: SANGER: Inhibition of human LU-65 cell growth in a cell viability assay.

[14] = tested on: NH-12; assay type: functional, cell-based;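 note: growth inhibition of NH-12 cells, read out with a cell viability assay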
Description: SANGER: Inhibition of human NH-12 cell growth in a cell viability assay.

[15] = tested on: HH; assay type: functional, cell-based
Description: SANGER: Inhibition of human HH cell growth in a cell viability assay.

[16] = tested on: LU-134-A; assay type: functional, cell-based
Description: SANGER: Inhibition of human LU-134-A cell growth in a cell viability assay.

[17] = tested on: LB2241-RCC; assay type: functional, cell-based;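 note: cell viability assay measuring how strongly the cultured human renal carcinoma line is prevented from growing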
Description: SANGER: Inhibition of human LB2241-RCC cell growth in a cell viability assay.

[18] = tested on: NCI-H1092; assay type: functional, cell-based;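 note: cell growth inhibition measured with a cell viability assay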
Description: SANGER: Inhibition of human NCI-H1092 cell growth in a cell viability assay.

[19] = tested on: M14; assay type: functional, cell-based;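 note: growth inhibition of M14 cells, read out with a cell viability assay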
Description: SANGER: Inhibition of human M14 cell growth in a cell viability assay.

[20] = tested on: SK-MEL-1; assay type: functional, cell-based;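 note: growth inhibition of human SK-MEL-1 cells, read out by a cell viability assay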
Description: SANGER: Inhibition of human SK-MEL-1 cell growth in a cell viability assay.

[21] = tested on: SJSA-1; assay type: functional, cell-based;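 note: growth inhibition of human SJSA-1 cells, read out through a cell viability measurement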
Description: SANGER: Inhibition of human SJSA-1 cell growth in a cell viability assay.

[22] = tested on: NCI-H526; assay type: functional, cell-based;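 note: growth inhibition of the human NCI-H526 cell line, measured by a cell viability assay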
Description: SANGER: Inhibition of human NCI-H526 cell growth in a cell viability assay.

[23] = tested on: NCI-H446; assay type: functional, cell-based;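 note: growth inhibition of NCI-H446 cells determined by a cell viability assay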
Description: SANGER: Inhibition of human NCI-H446 cell growth in a cell viability assay.

[24] = tested on: NCI-H630; assay type: functional, cell-based;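 note: growth inhibition of NCI-H630 cells, read out with a cell viability assay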
Description: SANGER: Inhibition of human NCI-H630 cell growth in a cell viability assay.

[25] = tested on: SCH; assay type: functional, cell-based;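 note: growth inhibition of human SCH cells, read out in a cell viability assay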
Description: SANGER: Inhibition of human SCH cell growth in a cell viability assay.

[26] = tested on: PSN1; assay type: functional, cell-based;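 note: suppression of growth of human PSN1 cells, read out by a cell viability assay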
Description: SANGER: Inhibition of human PSN1 cell growth in a cell viability assay.

[27] = tested on: EKVX; assay type: functional, cell-based;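 note: growth inhibition of human EKVX cells, read out with a cell viability assay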
Description: SANGER: Inhibition of human EKVX cell growth in a cell viability assay.

[28] = tested on: SW982; assay type: functional, cell-based;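 note: growth inhibition of SW982 cells, read out with a cell viability assay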
Description: SANGER: Inhibition of human SW982 cell growth in a cell viability assay.

[29] = tested on: KURAMOCHI; assay type: functional, cell-based;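 note: growth inhibition of KURAMOCHI cells, read out with a cell viability assay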
Description: SANGER: Inhibition of human KURAMOCHI cell growth in a cell viability assay.

[30] = tested on: no-11; assay type: functional, cell-based;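 note: growth inhibition of human NO-11 cells, read out with a cell viability assay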
Description: SANGER: Inhibition of human no-11 cell growth in a cell viability assay.

[31] = tested on: EW-13; assay type: functional, cell-based;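 note: growth inhibition of EW-13 cells, read out with a cell viability assay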
Description: SANGER: Inhibition of human EW-13 cell growth in a cell viability assay.

[32] = tested on: NCI-H1355; assay type: functional, cell-based;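 note: growth inhibition of human NCI-H1355 cells, read out by a cell viability assay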
Description: SANGER: Inhibition of human NCI-H1355 cell growth in a cell viability assay.

[33] = tested on: NCI-H1770; assay type: functional, cell-based;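 note: growth inhibition of NCI-H1770 cells determined with a viability readout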
Description: SANGER: Inhibition of human NCI-H1770 cell growth in a cell viability assay.

[34] = tested on: LU-139; assay type: functional, cell-based
Description: SANGER: Inhibition of human LU-139 cell growth in a cell viability assay.

[35] = tested on: HuP-T4; assay type: functional, cell-based;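 note: cell viability assay measuring how much HuP-T4 cell growth is inhibited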
Description: SANGER: Inhibition of human HuP-T4 cell growth in a cell viability assay.

[36] = tested on: TE-11; assay type: functional, cell-based;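 note: growth inhibition of human TE-11 cells, read out by a cell viability assay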
Description: SANGER: Inhibition of human TE-11 cell growth in a cell viability assay.

[37] = tested on: L-363; assay type: functional, cell-based
Description: SANGER: Inhibition of human L-363 cell growth in a cell viability assay.

[38] = tested on: KYSE-410; assay type: functional, cell-based;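 note: growth inhibition of KYSE-410 cells, measured through a cell viability readout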
Description: SANGER: Inhibition of human KYSE-410 cell growth in a cell viability assay.

[39] = tested on: G-401; assay type: functional, cell-based
Description: SANGER: Inhibition of human G-401 cell growth in a cell viability assay.

[40] = tested on: GB-1; assay type: functional, cell-based;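 note: growth of GB-1 cells judged by a viability assay, IC50 marks the concentration inhibiting growth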
Description: SANGER: Inhibition of human GB-1 cell growth in a cell viability assay.

[41] = tested on: KGN; assay type: functional, cell-based;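 note: growth inhibition of KGN cells, read out with a cell viability assay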
Description: SANGER: Inhibition of human KGN cell growth in a cell viability assay.

[42] = tested on: LS-123; assay type: functional, cell-based
Description: SANGER: Inhibition of human LS-123 cell growth in a cell viability assay.

[43] = tested on: NCI-H69; assay type: functional, cell-based;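 note: growth inhibition of the cell line, read out with a cell viability assay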
Description: SANGER: Inhibition of human NCI-H69 cell growth in a cell viability assay.

[44] = tested on: PANC-08-13; assay type: functional, cell-based;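 note: cell growth inhibition, measured with a cell viability assay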
Description: SANGER: Inhibition of human PANC-08-13 cell growth in a cell viability assay.

[45] = tested on: SK-MEL-2; assay type: functional, cell-based;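 note: growth inhibition of human SK-MEL-2 cells measured with a cell viability assay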
Description: SANGER: Inhibition of human SK-MEL-2 cell growth in a cell viability assay.

[46] = tested on: RCC10RGB; assay type: functional, cell-based;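 note: growth inhibition of human RCC10RGB cells, read out by a cell viability assay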
Description: SANGER: Inhibition of human RCC10RGB cell growth in a cell viability assay.

[47] = tested on: CAS-1; assay type: functional, cell-based;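 note: growth inhibition of CAS-1 cells, measured with a cell viability assay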
Description: SANGER: Inhibition of human CAS-1 cell growth in a cell viability assay.

[48] = tested on: HEL; assay type: functional, cell-based;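 note: growth inhibition of HEL cells, read out with a cell viability assay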
Description: SANGER: Inhibition of human HEL cell growth in a cell viability assay.

[49] = tested on: IST-MES1; assay type: functional, cell-based;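 note: growth inhibition of IST-MES1 cells, measured with a cell viability assay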
Description: SANGER: Inhibition of human IST-MES1 cell growth in a cell viability assay.

[50] = tested on: EFM-19; assay type: functional, cell-based;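 note: growth inhibition of human EFM-19 cells, measured in a cell viability assay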
Description: SANGER: Inhibition of human EFM-19 cell growth in a cell viability assay.

[51] = tested on: KARPAS-299; assay type: functional, cell-based
Description: SANGER: Inhibition of human KARPAS-299 cell growth in a cell viability assay.

[52] = tested on: ES6; assay type: functional, cell-based;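 note: growth inhibition of human ES6 cells, read out with a cell viability assay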
Description: SANGER: Inhibition of human ES6 cell growth in a cell viability assay.

[53] = tested on: LU-99A; assay type: functional, cell-based;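 note: growth inhibition of LU-99A cells, read out with a cell viability assay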
Description: SANGER: Inhibition of human LU-99A cell growth in a cell viability assay.

[54] = tested on: EFO-21; assay type: functional, cell-based;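 note: growth inhibition of EFO-21 cells measured with a viability assay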
Description: SANGER: Inhibition of human EFO-21 cell growth in a cell viability assay.

[55] = tested on: A498; assay type: functional, cell-based;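 note: growth inhibition of human A498 cells, read out with a cell viability assay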
Description: SANGER: Inhibition of human A498 cell growth in a cell viability assay.

[56] = tested on: SK-N-FI; assay type: functional, cell-based;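 note: cell viability assay measuring growth inhibition of human SK-N-FI cells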
Description: SANGER: Inhibition of human SK-N-FI cell growth in a cell viability assay.

[57] = tested on: MN-60; assay type: functional, cell-based
Description: SANGER: Inhibition of human MN-60 cell growth in a cell viability assay.

[58] = tested on: RXF 393; assay type: functional, cell-based
Description: SANGER: Inhibition of human RXF393 cell growth in a cell viability assay.

[59] = tested on: NCI-H720; assay type: functional, cell-based
Description: SANGER: Inhibition of human NCI-H720 cell growth in a cell viability assay.

[60] = tested on: SH-4; assay type: functional, cell-based
Description: SANGER: Inhibition of human SH-4 cell growth in a cell viability assay.

[61] = tested on: ATN-1; assay type: functional, cell-based
Description: SANGER: Inhibition of human ATN-1 cell growth in a cell viability assay.

[62] = tested on: SF-268; assay type: functional, cell-based
Description: SANGER: Inhibition of human SF268 cell growth in a cell viability assay.

[63] = tested on: NKM-1; assay type: functional, cell-based
Description: SANGER: Inhibition of human NKM-1 cell growth in a cell viability assay.

[64] = tested on: EW-11; assay type: functional, cell-based
Description: SANGER: Inhibition of human EW-11 cell growth in a cell viability assay.

[65] = tested on: EC-GI-10; assay type: functional, cell-based
Description: SANGER: Inhibition of human EC-GI-10 cell growth in a cell viability assay.

`CCCS(=O)(=O)Nc1ccc(F)c(C(=O)c2c[nH]c3ncc(Cl)cc23)c1F` [PLX-4720] was tested, and the IC50 [1] was greater than 10 µM, the IC50 [2] was greater than 10 µM and the IC50 [3] was greater than 10 µM. It also gave an IC50 [4] greater than 10 µM, an IC50 [5] of 4.74 µM and an IC50 [6] greater than 10 µM. For the same compound, the IC50 [7] was greater than 10 µM, the IC50 [8] was greater than 10 µM and the IC50 [9] was greater than 10 µM. The IC50 [10] was greater than 10 µM, the IC50 [11] was greater than 10 µM and the IC50 [12] was greater than 10 µM. It also gave an IC50 [13] greater than 10 µM, an IC50 [14] greater than 10 µM and an IC50 [15] greater than 10 µM. It also gave an IC50 [16] greater than 10 µM, an IC50 [17] of 7.37 µM and an IC50 [18] greater than 10 µM. For the same compound, the IC50 [19] was 0.218 µM, the IC50 [20] was greater than 10 µM and the IC50 [21] was greater than 10 µM. The IC50 [22] was greater than 10 µM, the IC50 [23] was greater than 10 µM and the IC50 [24] was greater than 10 µM. It also gave an IC50 [25] greater than 10 µM, an IC50 [26] greater than 10 µM and an IC50 [27] greater than 10 µM. It also gave an IC50 [28] of 8.42 µM, an IC50 [29] greater than 10 µM and an IC50 [30] greater than 10 µM. For the same compound, the IC50 [31] was greater than 10 µM, the IC50 [32] was greater than 10 µM and the IC50 [33] was greater than 10 µM. The IC50 [34] was greater than 10 µM, the IC50 [35] was greater than 10 µM and the IC50 [36] was greater than 10 µM. For the same compound, the IC50 [37] was greater than 10 µM, the IC50 [38] was greater than 10 µM and the IC50 [39] was greater than 10 µM. For the same compound, the IC50 [40] was greater than 10 µM, the IC50 [41] was greater than 10 µM and the IC50 [42] was greater than 10 µM. The IC50 [43] was greater than 10 µM, the IC50 [44] was greater than 10 µM and the IC50 [45] was greater than 10 µM. It also gave an IC50 [46] greater than 10 µM, an IC50 [47] greater than 10 µM and an IC50 [48] greater than 10 µM. It also gave an IC50 [49] greater than 10 µM, an IC50 [50] greater than 10 µM and an IC50 [51] greater than 10 µM. The IC50 [52] was greater than 10 µM, the IC50 [53] was greater than 10 µM and the IC50 [54] was greater than 10 µM. It also gave an IC50 [55] greater than 10 µM, an IC50 [56] greater than 10 µM and an IC50 [57] greater than 10 µM. For the same compound, the IC50 [58] was greater than 10 µM, the IC50 [59] was greater than 10 µM and the IC50 [60] was 0.414 µM. The IC50 [61] was greater than 10 µM, the IC50 [62] was greater than 10 µM and the IC50 [63] was greater than 10 µM. The IC50 [64] was greater than 10 µM.
`N#C/C(=C1/Nc2ccccc2S1)c1ccnc(NCCc2cccnc2)n1` gave an IC50 [1] greater than 8 µM, an IC50 [2] of 1.43 µM and an IC50 [3] greater than 8 µM. It also gave an IC50 [4] greater than 8 µM, an IC50 [5] greater than 8 µM and an IC50 [6] of 4.75 µM. For the same compound, the IC50 [7] was greater than 8 µM, the IC50 [8] was 5.7 µM and the IC50 [9] was greater than 8 µM. It also gave an IC50 [10] greater than 8 µM, an IC50 [11] greater than 8 µM and an IC50 [12] greater than 8 µM. It also gave an IC50 [13] greater than 8 µM, an IC50 [14] greater than 8 µM and an IC50 [15] greater than 8 µM. For the same compound, the IC50 [16] was greater than 8 µM, the IC50 [17] was greater than 8 µM and the IC50 [18] was greater than 8 µM. The IC50 [19] was greater than 8 µM, the IC50 [20] was greater than 8 µM and the IC50 [21] was greater than 8 µM. For the same compound, the IC50 [22] was greater than 8 µM, the IC50 [23] was greater than 8 µM and the IC50 [25] was greater than 8 µM. It also gave an IC50 [26] greater than 8 µM, an IC50 [27] greater than 8 µM and an IC50 [28] of 1.78 µM. The IC50 [29] was 3.51 µM, the IC50 [30] was greater than 8 µM and the IC50 [31] was greater than 8 µM. The IC50 [32] was 1.11 µM, the IC50 [33] was greater than 8 µM and the IC50 [34] was greater than 8 µM. It also gave an IC50 [35] of 4.44 µM, an IC50 [36] of 0.3 µM and an IC50 [37] greater than 8 µM. It also gave an IC50 [38] greater than 8 µM, an IC50 [39] of 2.82 µM and an IC50 [40] greater than 8 µM. The IC50 [41] was 5.85 µM, the IC50 [42] was greater than 8 µM and the IC50 [43] was greater than 8 µM. For the same compound, the IC50 [44] was 3.63 µM, the IC50 [45] was greater than 8 µM and the IC50 [46] was greater than 8 µM. For the same compound, the IC50 [47] was greater than 8 µM, the IC50 [48] was 7.08 µM and the IC50 [49] was greater than 8 µM. It also gave an IC50 [50] of 5.39 µM, an IC50 [51] greater than 8 µM and an IC50 [52] of 4.72 µM. For the same compound, the IC50 [53] was greater than 8 µM, the IC50 [54] was greater than 8 µM and the IC50 [55] was greater than 8 µM. The IC50 [56] was greater than 8 µM, the IC50 [57] was greater than 8 µM and the IC50 [58] was greater than 8 µM. It also gave an IC50 [59] greater than 8 µM, an IC50 [60] greater than 8 µM and an IC50 [61] greater than 8 µM. It also gave an IC50 [62] greater than 8 µM, an IC50 [63] of 2.31 µM and an IC50 [65] greater than 8 µM. For the same compound, the IC50 [64] was greater than 8 µM.
